Assay results: ChEMBL document CHEMBL4622904, “The discovery of azetidine-piperazine di-amides as potent, selective and reversible monoacylglycerol lipase (MAGL) inhibitors” (Bioorg Med Chem Lett, 2020)

How the values were obtained:
[1] = target: Plasma kallikrein (Homo sapiens) (UniProt P03952); assay: Inhibition of kallikrein (unknown origin) at 10 uM relative to control
[2] = target: Prothrombin (Homo sapiens) (UniProt P00734); assay: Inhibition of thrombin (unknown origin) at 10 uM relative to control
Chymase (Homo sapiens) = target: T1, Chymase (Homo sapiens) (UniProt P23946); assay: Inhibition of chymase (unknown origin) at 10 uM relative to control
T1 sequence (whole entry): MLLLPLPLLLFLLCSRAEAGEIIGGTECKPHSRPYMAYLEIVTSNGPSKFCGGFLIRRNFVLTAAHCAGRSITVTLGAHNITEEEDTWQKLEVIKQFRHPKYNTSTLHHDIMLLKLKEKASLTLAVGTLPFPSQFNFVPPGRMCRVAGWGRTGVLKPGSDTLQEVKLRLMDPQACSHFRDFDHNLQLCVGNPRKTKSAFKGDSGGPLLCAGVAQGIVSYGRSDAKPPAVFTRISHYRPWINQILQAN

[3] = target: T2, Cathepsin G (Homo sapiens) (UniProt P08311); assay: Inhibition of cathepsin G (unknown origin) at 10 uM relative to control
T2 sequence (whole entry): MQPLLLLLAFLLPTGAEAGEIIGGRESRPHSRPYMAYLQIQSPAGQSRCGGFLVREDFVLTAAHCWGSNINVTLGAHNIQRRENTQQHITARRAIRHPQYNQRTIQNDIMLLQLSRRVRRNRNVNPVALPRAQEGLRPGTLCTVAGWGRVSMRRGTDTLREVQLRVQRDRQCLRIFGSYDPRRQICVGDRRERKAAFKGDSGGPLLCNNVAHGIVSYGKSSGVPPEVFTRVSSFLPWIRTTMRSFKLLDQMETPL

[4] = target: T3, Myeloblastin (Homo sapiens) (UniProt P24158); assay: Inhibition of proteinase 3 (unknown origin) at 10 uM relative to control
T3 sequence (whole entry): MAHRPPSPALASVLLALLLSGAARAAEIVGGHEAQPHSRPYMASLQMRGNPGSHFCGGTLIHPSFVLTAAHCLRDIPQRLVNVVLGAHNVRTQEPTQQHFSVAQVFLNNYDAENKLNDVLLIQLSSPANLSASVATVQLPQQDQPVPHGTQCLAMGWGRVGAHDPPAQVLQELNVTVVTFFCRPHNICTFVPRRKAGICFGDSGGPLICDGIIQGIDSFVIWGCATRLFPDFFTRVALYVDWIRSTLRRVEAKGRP

[5] = target: T4, Coagulation factor VII (Homo sapiens) (UniProt P08709); assay: Inhibition of factor 7a (unknown origin) at 10 uM relative to control
T4 sequence (whole entry): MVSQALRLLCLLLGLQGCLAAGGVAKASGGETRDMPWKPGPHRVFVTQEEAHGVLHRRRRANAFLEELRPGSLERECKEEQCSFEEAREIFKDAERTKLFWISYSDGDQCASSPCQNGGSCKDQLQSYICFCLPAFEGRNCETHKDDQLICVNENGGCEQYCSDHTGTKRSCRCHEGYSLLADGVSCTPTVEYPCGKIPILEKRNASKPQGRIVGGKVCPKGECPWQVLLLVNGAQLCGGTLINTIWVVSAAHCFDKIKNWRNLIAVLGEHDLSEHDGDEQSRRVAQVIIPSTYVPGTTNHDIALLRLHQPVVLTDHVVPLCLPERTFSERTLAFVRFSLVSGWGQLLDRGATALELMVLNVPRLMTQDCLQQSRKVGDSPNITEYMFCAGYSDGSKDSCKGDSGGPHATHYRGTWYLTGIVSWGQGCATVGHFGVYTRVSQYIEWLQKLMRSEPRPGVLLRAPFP

[6] = target: Urokinase-type plasminogen activator (Homo sapiens) (UniProt P00749); assay: Inhibition of urokinase (unknown origin) at 10 uM relative to control
Bacteria = assay: Inhibition of bacterial streptokinase at 10 uM relative to control
Trypsin (Homo sapiens) = Trypsin (Homo sapiens) (UniProt P07477+P07478+P35030); assay: Inhibition of trypsin (unknown origin) at 10 uM relative to control; format: protein assay
[7] = target: Coagulation factor X (Homo sapiens) (UniProt P00742); assay: Inhibition of factor 10a (unknown origin) at 10 uM relative to control
[8] = AUClast in rat at 10 mg/kg, po; format: ADME, organism-based; parameters: dose 10 mg/kg, route oral, time 0 - last; settings: in vivo
[9] = Half life in rat at 10 mg/kg, po; format: ADME, organism-based; settings: in vivo
[10] = Clearance in rat at 10 mg/kg, po; format: ADME, organism-based; settings: in vivo
[11] = Volume of distribution at steady state in rat at 10 mg/kg, po; format: ADME, organism-based; settings: in vivo
[12] = Oral bioavailability in dog at 10 mg/kg; format: ADME, organism-based, Canis lupus familiaris; settings: in vivo
[13] = Tmax in dog at 10 mg/kg, po; format: ADME, organism-based, Canis lupus familiaris; settings: in vivo
[14] = Cmax in dog at 10 mg/kg, po; format: ADME, organism-based, Canis lupus familiaris; parameters: dose 10 mg/kg, route oral; settings: in vivo
[15] = AUClast in dog at 10 mg/kg, po; format: ADME, organism-based, Canis lupus familiaris; parameters: dose 10 mg/kg, route oral, time 0 - last; settings: in vivo
[16] = Half life in dog at 10 mg/kg, po; format: ADME, organism-based, Canis lupus familiaris; settings: in vivo
[17] = Clearance in dog at 10 mg/kg, po; format: ADME, organism-based, Canis lupus familiaris; settings: in vivo
[18] = Volume of distribution at steady state in dog at 10 mg/kg, po; format: ADME, organism-based, Canis lupus familiaris; settings: in vivo
[19] = Oral bioavailability in monkey at 10 mg/kg; format: ADME, organism-based, Macaca mulatta; settings: rhesus monkey, in vivo
[20] = Tmax in monkey at 10 mg/kg, po; format: ADME, organism-based, Macaca mulatta; settings: rhesus monkey, in vivo
[21] = Cmax in monkey at 10 mg/kg, po; format: ADME, organism-based, Macaca mulatta; parameters: dose 10 mg/kg, route oral; settings: rhesus monkey, in vivo
[22] = AUClast in monkey at 10 mg/kg, po; format: ADME, organism-based, Macaca mulatta; parameters: dose 10 mg/kg, time 0 - last, route oral; settings: rhesus monkey, in vivo
[23] = Half life in monkey at 10 mg/kg, po; format: ADME, organism-based, Macaca mulatta; settings: rhesus monkey, in vivo
[24] = Clearance in monkey at 10 mg/kg, po; format: ADME, organism-based, Macaca mulatta; settings: rhesus monkey, in vivo
[25] = Volume of distribution at steady state in monkey at 10 mg/kg, po; format: ADME, organism-based, Macaca mulatta; settings: rhesus monkey, in vivo

Chain of Coagulation factor X (Homo sapiens) (P00742 41-179 limits assumed): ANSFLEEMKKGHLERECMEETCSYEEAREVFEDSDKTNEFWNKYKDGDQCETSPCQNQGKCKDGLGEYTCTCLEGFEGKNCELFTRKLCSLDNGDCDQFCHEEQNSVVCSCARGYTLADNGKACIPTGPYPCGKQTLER
Chain of Coagulation factor X (Homo sapiens) (P00742 235-488 limits assumed): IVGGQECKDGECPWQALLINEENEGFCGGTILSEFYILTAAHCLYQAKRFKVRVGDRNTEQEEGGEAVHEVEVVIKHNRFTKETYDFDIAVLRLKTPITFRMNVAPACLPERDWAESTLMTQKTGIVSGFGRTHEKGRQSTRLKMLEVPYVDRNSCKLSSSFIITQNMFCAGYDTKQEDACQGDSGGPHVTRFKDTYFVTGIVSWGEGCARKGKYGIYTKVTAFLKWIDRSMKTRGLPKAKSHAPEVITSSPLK
Chain of Plasma kallikrein (Homo sapiens) (P03952 20-390 limits assumed): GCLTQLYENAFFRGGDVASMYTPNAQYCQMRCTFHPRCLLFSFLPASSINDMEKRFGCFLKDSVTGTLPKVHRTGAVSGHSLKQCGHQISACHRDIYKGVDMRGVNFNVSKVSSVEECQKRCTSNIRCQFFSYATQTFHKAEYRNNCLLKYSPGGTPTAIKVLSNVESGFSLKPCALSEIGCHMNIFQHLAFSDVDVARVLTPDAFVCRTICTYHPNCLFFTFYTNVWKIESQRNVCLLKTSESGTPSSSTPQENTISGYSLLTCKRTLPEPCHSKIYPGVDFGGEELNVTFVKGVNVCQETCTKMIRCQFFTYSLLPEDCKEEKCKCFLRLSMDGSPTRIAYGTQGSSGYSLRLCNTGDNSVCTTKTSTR
Chain of Plasma kallikrein (Homo sapiens) (P03952 391-638 limits assumed): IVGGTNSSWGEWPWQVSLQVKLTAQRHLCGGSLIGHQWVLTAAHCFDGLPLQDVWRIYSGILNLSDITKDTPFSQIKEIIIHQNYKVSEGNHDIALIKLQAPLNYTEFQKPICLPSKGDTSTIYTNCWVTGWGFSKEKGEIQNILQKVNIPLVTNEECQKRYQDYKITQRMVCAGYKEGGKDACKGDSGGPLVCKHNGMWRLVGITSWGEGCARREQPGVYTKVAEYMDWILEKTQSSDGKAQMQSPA

**Q.** For O=C(c1ccc2c(ccn2-c2ccc(F)cc2)c1)N1CC(N2CCN(C(=O)c3nccs3)CC2)C1, which inhibition [1] is on record?
**A.** 4%

**Q.** What about the inhibition [2] of the same compound?
**A.** -1%

**Q.** What about the inhibition (Chymase (Homo sapiens)) of the same compound?
**A.** 11%

**Q.** And the inhibition [3]?
**A.** 13%

**Q.** What about the inhibition [4] of the same compound?
**A.** 7%

**Q.** And the inhibition [5]?
**A.** -5%

**Q.** And the inhibition [6]?
**A.** 2%

**Q.** What about the inhibition (Bacteria) of the same compound?
**A.** 1%

**Q.** And the inhibition (Trypsin (Homo sapiens))?
**A.** -10%

**Q.** And the inhibition [7]?
**A.** 0%

**Q.** What about the AUC(0-t) [8] of the same compound?
**A.** 3730 ng·h/mL

**Q.** And the half-life [9]?
**A.** 6.82 h

**Q.** What about the CL/F [10] of the same compound?
**A.** 19.2 mL/min/kg

**Q.** And the Vdss [11]?
**A.** 1.22 L/kg

**Q.** What about the bioavailability [12] of the same compound?
**A.** 79%

**Q.** What about the Tmax [13] of the same compound?
**A.** 2 h

**Q.** What about the Cmax [14] of the same compound?
**A.** 2860 ng/mL

**Q.** What about the AUC(0-t) [15] of the same compound?
**A.** 33600 ng·h/mL

**Q.** What about the half-life [16] of the same compound?
**A.** 7.46 h

**Q.** And the CL/F [17]?
**A.** 4.35 mL/min/kg

**Q.** What about the Vdss [18] of the same compound?
**A.** 0.56 L/kg

**Q.** And the bioavailability [19]?
**A.** 82%

**Q.** What about the Tmax [20] of the same compound?
**A.** 2.67 h

**Q.** And the Cmax [21]?
**A.** 5300 ng/mL

**Q.** What about the AUC(0-t) [22] of the same compound?
**A.** 33500 ng·h/mL

**Q.** And the half-life [23]?
**A.** 4.62 h

**Q.** And the CL/F [24]?
**A.** 4.46 mL/min/kg

**Q.** And the Vdss [25]?
**A.** 0.429 L/kg
